Counter-ions that a name gives are not always drawn.
Molecular target: recombinant human AMPK complex 1 (containing α1β1γ1) (Homo sapiens, UniProt Q13131+Q9Y478)
Assay: […] (in vitro AMPK activation assay)
Type: biochemical
Conditions: recombinant human AMPK complex 1 (α1β1γ1); for Emax: basal activity subtracted, read-out: % Maximum AMP Activation of human AMPK Complex 1
Experimental: Recombinant viruses were generated by cotransfection of AMPK/pBacPak9 clones with Baculogold baculovirus DNA (Pharmingen) in spodoptera frugiperda 21 cells according to the manufacturer's instructions. Each round of virus amplification was performed for 5 days in Grace's medium containing 10% serum. Virus that had been subjected to three rounds of amplification was used for all protein production procedures. To express the AMPK complex, sf21 cells were adapted to serum free medium (SF900 II, Invitrogen) by sequential dilution from serum containing stocks into SF900 II medium and maintained in shaker flasks at 90 rpm at 27° C. The recombinant AMPK enzyme complex was produced by triple infection, one recombinant virus for each of the subunits, in sf21 cells under serum free conditions. […] Cells were harvested by centrifugation at 10,000×g for 15 minutes after 72 hours of infection with viruses. The insect cell pellet from 2 liters of culture was resuspended in 50 ml lysis buffer (20 mM Tris-HCl, 50 mM NaCl, 50 mM NaF, 30 mM Na PPi, 0.25 M sucrose, 10 mM ZnCl2, 2 mM DTT, 0.4 mg/ml digitonin) and subjected to two cycles of freeze-thaw lysis in a dry-ice ethanol bath. Insoluble material was removed by centrifugation at 10,000×g and the supernatant was fractionated with use of polyethylene glycol (PEG).
The total in vitro AMPK activation assay volume is 50 μl in a 96-well plate. […] The reaction was initiated with addition of the enzyme. After 30-minute incubation at 30° C., the reaction was stopped by addition of 80 μl 1% H3PO4. Aliquots (100 μl) were transferred to 96-well MultiScreen plates (MAPHNOB50; Millipore Corp., Bedford, Mass., USA). The plate was washed three times with 1% H3PO4 followed by detection in a Top-count. The counts per minute from the basal activity (the reaction without activator) was subtracted from each well and the data were expressed as % maximum AMP activation followed by EC50 calculation.

Chain of recombinant human AMPK complex 1 (containing α1β1γ1) (Q13131 whole entry): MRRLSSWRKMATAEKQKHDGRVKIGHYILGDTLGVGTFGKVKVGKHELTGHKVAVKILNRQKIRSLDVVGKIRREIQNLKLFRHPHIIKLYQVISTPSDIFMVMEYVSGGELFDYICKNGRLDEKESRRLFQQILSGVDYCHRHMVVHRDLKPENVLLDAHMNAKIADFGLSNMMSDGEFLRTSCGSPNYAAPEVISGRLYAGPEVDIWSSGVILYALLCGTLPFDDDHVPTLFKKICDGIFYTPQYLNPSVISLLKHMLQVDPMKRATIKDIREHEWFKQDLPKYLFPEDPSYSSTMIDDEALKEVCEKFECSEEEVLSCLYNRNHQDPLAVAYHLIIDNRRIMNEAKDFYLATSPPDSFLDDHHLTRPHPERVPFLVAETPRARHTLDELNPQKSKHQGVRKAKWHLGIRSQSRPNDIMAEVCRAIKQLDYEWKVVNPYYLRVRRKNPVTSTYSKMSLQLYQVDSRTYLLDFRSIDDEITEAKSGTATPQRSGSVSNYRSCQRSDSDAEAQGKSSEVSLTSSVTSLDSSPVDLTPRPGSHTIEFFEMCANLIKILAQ
Chain of recombinant human AMPK complex 1 (containing α1β1γ1) (Q9Y478 whole entry): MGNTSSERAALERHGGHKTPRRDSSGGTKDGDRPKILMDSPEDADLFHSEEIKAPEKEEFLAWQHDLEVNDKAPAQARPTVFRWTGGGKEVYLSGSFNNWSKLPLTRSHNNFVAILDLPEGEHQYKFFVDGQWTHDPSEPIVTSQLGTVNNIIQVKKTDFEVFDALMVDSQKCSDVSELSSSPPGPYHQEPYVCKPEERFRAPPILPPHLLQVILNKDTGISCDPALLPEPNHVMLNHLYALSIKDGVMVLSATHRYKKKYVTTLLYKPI
Chain of recombinant human AMPK complex 1 (containing α1β1γ1) (P54619 whole entry partner): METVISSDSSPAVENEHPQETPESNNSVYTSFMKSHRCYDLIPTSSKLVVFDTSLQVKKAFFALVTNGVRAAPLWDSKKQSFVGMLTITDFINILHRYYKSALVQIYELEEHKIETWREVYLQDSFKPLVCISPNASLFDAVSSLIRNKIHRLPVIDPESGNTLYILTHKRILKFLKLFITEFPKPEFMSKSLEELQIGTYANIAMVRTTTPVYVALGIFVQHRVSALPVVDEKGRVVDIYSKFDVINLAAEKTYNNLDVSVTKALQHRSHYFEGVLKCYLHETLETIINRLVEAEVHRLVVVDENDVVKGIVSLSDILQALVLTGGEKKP

COC(=O)c1cc(Oc2nc3cc(C#Cc4cccnc4)c(Cl)cc3[nH]2)ccc1C [Example 133, 5-(6-Chloro-5-pyridin-3-ylethynyl-1H-benzoimidazol-2-yloxy)-2-methyl-benzoic acid methyl ester]
Emax: > 80%

Cc1ccc(Oc2nc3cc(-c4cnc(N5CCCC5)cn4)c(F)cc3[nH]2)cc1C(=O)O [Example 250, 5-[6-Fluoro-5-(5-pyrrolidin-1-yl-pyrazin-2-yl)-1H-benzoimidazol-2-yloxy]-2-methyl-benzoic acid]
Emax: > 80%

NC(C(=O)O)c1ccc(Oc2nc3cc(-c4ccc(-c5ccccc5)cc4)c(Cl)cc3[nH]2)cc1 (stereo not shown) [Example 18, Amino-[4-(5-biphenyl-4-yl-6-chloro-1H-benzoimidazol-2-yloxy)-phenyl]-acetic acid]
Emax: > 80%

Cc1ccc(Oc2nc3cc(C#Cc4ccc(F)cc4F)c(Cl)cc3[nH]2)cc1C(=O)O [Example 76, 5-[6-Chloro-5-(2,4-difluoro-phenylethynyl)-1H-benzoimidazol-2-yloxy]-2-methyl-benzoic acid]
Emax: > 80%

Cc1ccc(Oc2nc3cc(-c4ccc(/C(N)=N/O)cc4)c(Cl)cc3[nH]2)cc1C(=O)O [Example 177, 5-{6-Chloro-5-[4-(N-hydroxycarbamimidoyl)-phenyl]-1H-benzoimidazol-2-yloxy}-2-methyl-benzoic acid]
Emax: > 80%

Cc1ccc(Oc2nc3cc(-c4ccc5c(ccn5CC5CC5)c4)c(Cl)cc3[nH]2)cc1C(=O)O [Example 252, 5-[6-Chloro-5-(1-cyclopropylmethyl-1H-indol-5-yl)-1H-benzoimidazol-2-yloxy]-2-methyl-benzoic acid]
Emax: > 80%

Cc1ccc(Oc2nc3cc(-c4ccc5c(c4)CCNC5=O)c(Cl)cc3[nH]2)cc1C(=O)O [Example 237, 5-[6-Chloro-5-(1-oxo-1,2,3,4-tetrahydro-isoquinolin-6-yl)-1H-benzoimidazol-2-yloxy]-2-methyl-benzoic acid]
Emax: > 80%

CCCc1ccc(-c2cc3nc(Oc4ccc(C)c(C(=O)O)c4)[nH]c3cc2Cl)cc1 [Example 347, 2-(3-carboxy-4-methylphenoxy)-6-chloro-5-(4-propylphenyl)-1H-3,1-benzimidazol-3-ium trifluoroacetate]
Emax: > 80%

Cc1ccc(Oc2nc3cc(-c4ccc(C(C)(C)C#N)cc4)c(Cl)cc3[nH]2)cc1C(=O)O [Example 239, 5-{6-Chloro-5-[4-(cyano-dimethyl-methyl)-phenyl]-1H-benzoimidazol-2-yloxy}-2-methyl-benzoic acid]
Emax: > 80%

Cc1ccc(Oc2nc3cc(-c4ccc(N5CCCC5)cc4)c(Cl)cc3[nH]2)cc1C(=O)O [Example 231, 5-{[6-chloro-5-(4-pyrrolidin-1-ylphenyl)-1H-benzimidazol-2-yl]oxy}-2-methylbenzoic acid]
EC50 (read-out: EC50): 7 nM

Cc1ccc(Oc2nc3cc(-c4ccc5c(c4)cc(-c4ccccc4)n5C)c(Cl)cc3[nH]2)cc1C(=O)O [Example 277, 5-[6-Chloro-5-(1-methyl-2-phenyl-1H-indol-5-yl)-1H-benzoimidazol-2-yloxy]-2-methyl-benzoic acid]
Emax: > 80%

Cc1ccc(Oc2nc3cc(C#Cc4cccc(C(=O)O)c4)c(Cl)cc3[nH]2)cc1C(=O)O [Example 126, 5-[5-(3-Carboxy-phenylethynyl)-6-chloro-1H-benzoimidazol-2-yloxy]-2-methyl-benzoic acid]
Emax: > 80%

Cc1ccc(Oc2nc3cc(-c4ccc5c(C)n[nH]c5c4)c(Cl)cc3[nH]2)cc1C(=O)O [Example 240, 5-[6-Chloro-5-(3-methyl-1H-indazol-6-yl)-1H-benzoimidazol-2-yloxy]-2-methyl-benzoic acid]
Emax: > 80%

Cc1ccc(Oc2nc3cc(-c4ccc5c(c4)CN(C)C5)c(Cl)cc3[nH]2)cc1C(=O)O [Example 300, 5-[2-(3-carboxy-4-methylphenoxy)-6-chloro-1H-benzimidazol-5-yl]-2-methyl-2,3-dihydro-1H-isoindolium trifluoroacetate]
Emax: > 80%

Cc1ccc(Oc2nc3cc(-c4ccc(-c5ccn[nH]5)cc4)c(F)cc3[nH]2)cc1C(=O)O [Example 246, 5-{6-Fluoro-5-[4-(2H-pyrazol-3-yl)-phenyl]-1H-benzoimidazol-2-yloxy}-2-methyl-benzoic acid]
Emax: > 80%

Cc1ccc(Oc2nc3cc(C#Cc4ccc(-n5ccnc5)cc4)c(Cl)cc3[nH]2)cc1C(=O)O [Example 86, 5-[6-Chloro-5-(4-imidazol-1-yl-phenylethynyl)-1H-benzoimidazol-2-yloxy]-2-methyl-benzoic acid]
Emax: > 80%

CN1CCOc2cc(-c3cc4nc(Oc5ccc(CC(=O)O)cc5)[nH]c4cc3Cl)ccc21 [Example 244, {4-[6-Chloro-5-(4-methyl-3,4-dihydro-2H-benzo[1,4]oxazin-7-yl)-1H-benzoimidazol-2-yloxy]-phenyl}-acetic acid]
Emax: > 80%

Cc1ccc(Oc2nc3cc(-c4ccc5c(c4)N(C)CCN5C)c(Cl)cc3[nH]2)cc1C(=O)O [Example 362, 5-[6-chloro-5-(1,4-dimethyl-1,2,3,4-tetrahydro-quinoxalin-6-yl)-1H-benzoimidazol-2-yloxy]-2-methyl-benzoic acid]
Emax: > 80%

Cc1ccc(Oc2nc3cc(C#Cc4ccc(-c5cscn5)cc4)c(Cl)cc3[nH]2)cc1C(=O)O [Example 83, 5-[6-Chloro-5-(4-thiazol-4-yl-phenylethynyl)-1H-benzoimidazol-2-yloxy]-2-methyl-benzoic acid]
Emax: > 80%

COC(=O)c1cc(Oc2nc3cc(C#Cc4ccc(F)cc4)c(Cl)cc3[nH]2)ccc1C [Example 114, 5-[6-Chloro-5-(4-fluoro-phenylethynyl)-1H-benzoimidazol-2-yloxy]-2-methyl-benzoic acid methyl ester]
Emax: > 80%

Cc1ccc(Oc2nc3cc(-c4cn[nH]c4)c(Cl)cc3[nH]2)cc1C(=O)O [Example 160, 5-[6-Chloro-5-(1H-pyrazol-4-yl)-1H-benzoimidazol-2-yloxy]-2-methyl-benzoic acid]
Emax: > 80%

COC(=O)c1cc(Oc2nc3cc(C#Cc4ccccc4F)c(Cl)cc3[nH]2)ccc1C [Example 119, 5-[6-Chloro-5-(2-fluoro-phenylethynyl)-1H-benzoimidazol-2-yloxy]-2-methyl-benzoic acid methyl ester]
Emax: > 80%

Cc1ccc(Oc2nc3cc(C#Cc4ccc(-c5nccs5)cc4)c(Cl)cc3[nH]2)cc1C(=O)O [Example 84, 5-[6-Chloro-5-(4-thiazol-2-yl-phenylethynyl)-1H-benzoimidazol-2-yloxy]-2-methyl-benzoic acid]
Emax: > 80%

Cc1ccc(Oc2nc3cc(-c4cccc(-c5ccccc5)c4)c(Cl)cc3[nH]2)cc1C(=O)O [Example 302, 5-(5-Biphenyl-3-yl-6-chloro-1H-benzoimidazol-2-yloxy)-2-methyl-benzoic acid]
Emax: > 80%

Cc1ccc(Oc2nc3cc(-c4ccc5ncccc5c4)c(Cl)cc3[nH]2)cc1C(=O)O [Example 150, 2-(3-carboxy-4-methylphenoxy)-6-chloro-5-quinolin-6-yl-1H-3,1-benzimidazol-3-ium chloride]
Emax: > 80%

Cc1ccc(Oc2nc3cc(-c4ccc5c(C)cn(C(=O)OC(C)(C)C)c5c4)c(Cl)cc3[nH]2)cc1C(=O)O [Example 290, 6-[2-(3-Carboxy-4-methyl-phenoxy)-6-chloro-1H-benzoimidazol-5-yl]-3-methyl-indole-1-carboxylic acid tert butyl ester]
Emax: > 80%

COC(=O)c1cc(Oc2nc3cc(-c4ccc(-c5ccc(=O)n(C(F)F)c5)cc4)c(Cl)cc3[nH]2)ccc1C [Example 163, 5-{6-Chloro-5-[4-(1-difluoromethyl-6-oxo-1,6-dihydro-pyridin-3-yl)-phenyl]-1H-benzoimidazol-2-yloxy}-2-methyl-benzoic acid methyl ester]
Emax: > 80%

Cc1ccc(Oc2nc3cc(-c4ccc(C(=O)O)c5c4c(C)cn5C)c(Cl)cc3[nH]2)cc1C(=O)O [Example 270, 4-[2-(3-Carboxy-4-methyl-phenoxy)-6-chloro-1H-benzoimidazol-5-yl]-1,3-dimethyl-1H-indole-7-carboxylic acid]
Emax: > 80%

O=C(O)c1ccc(Oc2nc3cc(-c4ccc(-c5ccccc5)cc4)c(Cl)cc3[nH]2)cc1O [Example 32, 4-(5-Biphenyl-4-yl-6-chloro-1H-benzoimidazol-2-yloxy)-2-hydroxy-benzoic acid]
Emax: > 80%

Cc1ccc(Oc2nc3cc(-c4cccc(CO)n4)c(Cl)cc3[nH]2)cc1C(=O)O [Example 332, 2-(3-carboxy-4-methylphenoxy)-6-chloro-5-[6-(hydroxymethyl)pyridin-2-yl]-1H-3,1-benzimidazol-3-ium formate]
Emax: > 80%

O=C(O)CCc1cccc(Oc2nc3cc(C#Cc4ccccc4)c(Cl)cc3[nH]2)c1 [Example 24, 3-[3-(6-Chloro-5-phenylethynyl-1H-benzoimidazol-2-yloxy)-phenyl]-propionic acid]
Emax: > 80%

— patent US8394969B2, “Cyclic benzimidazole derivatives useful as anti-diabetic agents” (Merck Sharp & Dohme Corp., priority 2008, dated 2013)
